Tests used:
[1] = biological target: T1, Aβ42 (Homo sapiens, UniProt P05067); assay: Multimer detection system (MDS) assay of Aβ42 oligomerization; format: biochemical; conditions: compounds 100 µM, Aβ42 200 µg/mL; compared to negative control and Daidzein or Equol; FIG. 2
T1 construct: 1,1,1,3,3,3-hexafluoro-2-propanol-treated Aβ42 (# A-1163-1, rPeptide); purchased rPeptide A-1163-1
Experimental: The drugs selected on the basis of the ThT assay results were evaluated for inhibitory activity against the oligomerization of Aβ42, using a multimer detection system (MDS) assay. Immediately after being dissolved in 1% NH4OH (# 221228, Sigma-Aldrich), 1,1,1,3,3,3-hexafluoro-2-propanol-treated Aβ42 (# A-1163-1, rPeptide) was diluted in 500 µL of phosphate-buffered saline (PBS; pH 7.5), aliquoted into 1.5-mL tubes, and stored at -80° C. until use. Aβ42 and the compounds were mixed with PBS to make final concentrations of 200 µg/mL and 100 µM, respectively, and incubated at room temperature. Aggregation of Aβ42 was terminated by maintaining at -80° C.
After the reaction between each drug and Aβ42, the oligomeric form of Aβ42 was measured for each time to measure inhibitory effects on the oligomer.

[2] = test system: JNK; assay: JNK protein expression (western blot) in LPS-treated BV2 cells; format: cell-based, mouse; conditions: 5 µM, compared to the LPS-treated group, FIG. 12a
Experimental: BV2 cells were aliquoted at a density of 1x10^6 cells/well into 60 mm dishes and stabilized for 24 hours. Thereafter, the cells were treated with 5 µM of S-equal, SPA1413, or SPA1426 for 30 minutes and then with LPS (100 ng/ml) for 24 hours at 37° C. After being cultured to reach 100% confluence, the cells were washed with PBS and lysed with a lysis buffer (PRO-PREP™ Protein Extraction Solution, Intron Biotechnology, Seongnam, Korea). With bovine serum albumin (BSA) serving as a standard, the protein contents of the lysate supernatants were measured by Bio-Rad Protein Assay (Bio-Rad, California, USA) to determine the total protein content in each sample. Afterwards, each of the samples was loaded in a protein amount of 30 µg on a 10-12% SDS-PAGE gel and run for electrophoresis. The electrophorized proteins were transferred to a PVDF membrane which was then blocked with 5% skim milk and incubated with antibodies to JNK or p38 (Cell Signaling Technologies, Massachusetts, USA). Detection was conducted with a ChemiDoc XRS+ imaging system (Bio-Rad, CA, USA).

[3] = test system: TNF-a; assay: TNF-a production (ELISA) in LPS-treated BV2 cells; format: cell-based, mouse; conditions: 5 µM, LPS (100 ng/ml) 24 hours, FIG. 10b
Experimental: BV2 cells were seeded at a density of 4x10^5 cells/well into 96-well plates and stabilized for 24 hours. Thereafter, the cells were treated with 5 µM of daidzein, o-desmethylangolensin, S-equal, SPA1413, or SPA1426 for 30 minutes and then with LPS (100 ng/ml) for 24 hours at 37° C. The culture medium was collected and quantitatively measured for IL-6 and TNF-a released to the BV2 culture supernatant, using the enzyme immunoassay method […] Enzyme-Linked Immuno Assay (ELISA) kit (R&D systems, Minneapolis, MN, USA). The IL-6 and TNF-a releases from the groups treated with the samples were evaluated relative to that from the LPS-treated group, which was set to be 100%, and the results are depicted in FIGS. 10a and 10b.

[4] = test system: LPS-treated BV2 cells; assay: Cell viability of LPS-treated BV2 cells; format: cell-based, mouse; conditions: FIG. 8b
Experimental: Mouse-derived microglia (BV2 cells) purchased from the Korean Cell Line Bank were seeded at a density of 4x10^5 cells/well into 96-well plates, each well containing DMEM (Dulbecco’s Modified Eagle’s Media) supplemented with 10% FBS and 1% antibiotics, and stabilized by incubation for 24 hours. Thereafter, the cells were treated for 24 hours with various concentrations (0.5, 1, and 5 µM) of daidzein, o-desmethylangolensin (O-DMA), S-equal, SPA1413, and SPA1426. After removal of the medium, the cells were treated 0.5 mg/ml 3-(4,5-dimethylthiazol-2-yl)-2,5-diphenyltetrazolium bromide (MTT) solution 1 hour. The reduced formazan was dissolved in 150 µl of dimethyl sulfoxide (DMSO) and absorbance was read at 570 nm in a microspectrophotometer to determine cell viability. Cell viability of the cells treated with each sample was determined relative to that of the untreated normal control (Control), which was set to be 100%, and the results are depicted in FIGS. 3 and 4 (upper).
After stabilization for 24 hours, the cells were treated with various concentrations (1 and 5 µM) of daidzein, o-desmethylangolensin, S-equal, SPA1413, and SPA1426 for 30 minutes and then with LPS (100 ng/ml) for 24 hours at 37° C. […]

[5] = test system: N2a cells; assay: Neurite outgrowth in N2a cells (Incucyte); format: cell-based, mouse; conditions: 5 µM, FIGS. 14a and 14b
Experimental: N2a cells were aliquoted at a density of 1x10^4 cells/well into 24-well plates, treated with daidzein, o-desmethylangolensin, S-equal, SPA1413 and SPA1426 at 5 µM, and evaluated for neurite outgrowth by the real-time cell monitoring system InCucyte. The cells were photographed every 2 hours, and the neurites were counted through Incucyte software.

[6] = biological target: T1, Aβ42; assay: Thioflavin T (ThT) assay of Aβ fibrosis; format: biochemical; conditions: ThT fluorescence, 37° C., 180 minutes; compared to negative control and Daidzein or Equol; FIG. 1
Experimental: ThT assay was used to examine whether the drugs have an inhibitory activity against the fibrosis of Aβ. Lyophilized AggreSure AβAS-72216, AnaSpec) was dissolved in cold Tris buffered saline (TBS; pH 7.2) to prepare a 160 µg/mL Aβ solution. The solution was aliquoted into 1.5 mL tubes and stored at -80° C. until use. ThT (# T3516, Sigma-Aldrich) and drug candidates were dissolved in TBS to form a final concentration of 500 µM. The diluted aggregates were added to […] black plates (Nunc # 242764), mixed with ThT and drug candidates, and incubated at 37° C. for 180 minutes. Fluorescence signals were measured every 5 minutes using a plate reader (Victor3, PerkinElmer).

[7] = test system: LPS-treated primary microglia; assay: Cell viability of LPS-treated primary microglia; format: cell-based, ICR mice; conditions: FIG. 9b

T1 sequence (P05067 672-713 limits assumed): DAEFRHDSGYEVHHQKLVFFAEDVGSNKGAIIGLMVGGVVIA

SMILES	inhibition of Aβ42 oligomerization [1]	expression level of JNK protein [2]	TNF-a production [3]	cell viability compared to the group treated with LPS [4]	neurite outgrowth [5]	inhibition of Aβ42 fibrosis [6]	cell viability compared to the group treated with LPS [7]
CCCC(=O)Oc1ccc(C2=Cc3ccc(OC(=O)CCC)cc3OC2)cc1 [SPA1426, 4-(7-(butyryloxy)-2H-chromen-3-yl)phenyl butyrate]	exhibited inhibitory effects on Aβ42 oligomerization	decreased	significantly decreased	increased	significantly increased	showed the effect of inhibiting Aβ42 fibrosis	increased
Oc1ccc(C2=Cc3ccc(O)cc3OC2)cc1 [SPA1413, 3-(4-Hydroxyphenyl)-2H-chromen-7-ol]	exhibited inhibitory effects on Aβ42 oligomerization	decreased	significantly decreased	increased	significantly increased	showed the effect of inhibiting Aβ42 fibrosis	increased

— US20230330059A1, “3-PHENYL-2H-CHROMENE DERIVATIVE AND PHARMACEUTICAL COMPOSITION FOR PREVENTING OR TREATING ALZHEIMER'S, CONTAINING SAME” (NEUROBIONET, INC., priority 2020, published 2023)
